For one data set, the target named is CYP2D6 (Homo sapiens, UniProt P10635). In words: Inhibition of CYP2D6 at 3 uM. It counts as ADME.
The next data set addresses CYP3A4 (Homo sapiens, UniProt P08684). In words: Inhibition of CYP3A4 at 3 uM. In kind it is ADME.
The target in data set [1] is Sodium-dependent serotonin transporter (Homo sapiens, UniProt P31645). In kind it is cell-based, JAR.
Description: Inhibition of serotonin uptake at human SERT expressed in JAR cells
Data set [2] is described as follows: Half life in monkey liver microsomes at 1 uM. It counts as ADME, Macaca mulatta, Microsome. To be noted: rhesus monkey.
A short description of data set [3]: Half life in human liver microsomes at 1 uM. It counts as ADME, Microsome.
In the next data set the target is CYP2C9 (Homo sapiens, UniProt P11712). In words: Inhibition of CYP2C9 at 3 uM. In kind it is ADME.
The nature of data set [4]: Membrane permeability by PAMPA assay. In kind it is ADME. Particulars: read-out: permeability.
Data set [5] can be described thus: Half life in rat liver microsomes at 1 uM. In kind it is ADME, Microsome.
A short description of data set [6]: Half life in dog liver microsomes at 1 uM. In kind it is ADME, Canis lupus familiaris, Microsome.
The nature of data set [7]: Aqueous solubility at pH 7.4. In kind it is physicochemical.
The target of data set [8] is Sodium-dependent dopamine transporter (Homo sapiens) (UniProt Q01959). In words: Displacement of [3H]WIN-35428 from human recombinant DAT expressed in CHO cells at 1 uM. It counts as cell-based.
Data set [9] in a line: Binding affinity to alpha2 adrenergic receptor.
Data set [10] can be described thus: Binding affinity to alpha1 adrenergic receptor.
The target in data set [11] is T1, 5-hydroxytryptamine receptor 1A (Homo sapiens) (UniProt P08908).
T1 sequence (whole entry): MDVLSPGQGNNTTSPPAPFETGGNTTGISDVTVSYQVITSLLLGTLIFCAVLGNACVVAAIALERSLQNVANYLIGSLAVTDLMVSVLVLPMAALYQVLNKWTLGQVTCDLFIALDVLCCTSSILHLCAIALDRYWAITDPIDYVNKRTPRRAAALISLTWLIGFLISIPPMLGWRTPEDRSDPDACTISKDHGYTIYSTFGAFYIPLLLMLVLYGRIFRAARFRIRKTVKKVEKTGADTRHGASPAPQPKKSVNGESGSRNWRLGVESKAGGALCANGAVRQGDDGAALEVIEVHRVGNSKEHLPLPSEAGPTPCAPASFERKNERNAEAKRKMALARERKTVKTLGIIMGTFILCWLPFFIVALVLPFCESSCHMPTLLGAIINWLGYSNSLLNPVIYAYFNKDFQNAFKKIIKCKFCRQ
In words: Binding affinity to 5-HT1A receptor.

The target of data set [12] is 5-hydroxytryptamine receptor 2A (Homo sapiens) (UniProt P28223). In words: Binding affinity to 5-HT2A receptor.
The target of data set [13] is T2, Sodium-dependent noradrenaline transporter (Homo sapiens, UniProt P23975).
The subject of the next data set is MDCK-Net6. In words: Selectivity index, ratio of IC50 for human SERT to IC50 for human NET uptake in MDCK-Net6 cell. In kind it is cell-based.
Data set [14] has as its target T2, Sodium-dependent noradrenaline transporter. In words: Inhibition of norepinephrine reuptake at human NET expressed in MDCK-Net6 cells at 1000 nM. It counts as cell-based.

The source made the active and inactive calls. The rule behind the calls is not given here.

Sodium-dependent dopamine transporter (Homo sapiens), sequence (Q01959 whole entry): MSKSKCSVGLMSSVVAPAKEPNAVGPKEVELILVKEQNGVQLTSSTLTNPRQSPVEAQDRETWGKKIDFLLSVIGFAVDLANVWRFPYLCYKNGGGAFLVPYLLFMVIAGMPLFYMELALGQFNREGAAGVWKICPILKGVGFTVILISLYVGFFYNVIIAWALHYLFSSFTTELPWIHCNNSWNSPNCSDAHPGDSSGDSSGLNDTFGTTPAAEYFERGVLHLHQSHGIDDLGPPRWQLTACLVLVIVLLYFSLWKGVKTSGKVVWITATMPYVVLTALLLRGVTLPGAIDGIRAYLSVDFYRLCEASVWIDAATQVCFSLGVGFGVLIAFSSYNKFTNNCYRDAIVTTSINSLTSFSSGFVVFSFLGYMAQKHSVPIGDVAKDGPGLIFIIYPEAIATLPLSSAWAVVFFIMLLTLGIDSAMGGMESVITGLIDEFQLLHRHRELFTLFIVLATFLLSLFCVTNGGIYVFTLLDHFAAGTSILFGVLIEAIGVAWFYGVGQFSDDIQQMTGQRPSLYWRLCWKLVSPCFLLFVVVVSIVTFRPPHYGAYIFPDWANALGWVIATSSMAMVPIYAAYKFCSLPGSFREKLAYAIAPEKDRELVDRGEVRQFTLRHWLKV
Sodium-dependent serotonin transporter, sequence (P31645 whole entry): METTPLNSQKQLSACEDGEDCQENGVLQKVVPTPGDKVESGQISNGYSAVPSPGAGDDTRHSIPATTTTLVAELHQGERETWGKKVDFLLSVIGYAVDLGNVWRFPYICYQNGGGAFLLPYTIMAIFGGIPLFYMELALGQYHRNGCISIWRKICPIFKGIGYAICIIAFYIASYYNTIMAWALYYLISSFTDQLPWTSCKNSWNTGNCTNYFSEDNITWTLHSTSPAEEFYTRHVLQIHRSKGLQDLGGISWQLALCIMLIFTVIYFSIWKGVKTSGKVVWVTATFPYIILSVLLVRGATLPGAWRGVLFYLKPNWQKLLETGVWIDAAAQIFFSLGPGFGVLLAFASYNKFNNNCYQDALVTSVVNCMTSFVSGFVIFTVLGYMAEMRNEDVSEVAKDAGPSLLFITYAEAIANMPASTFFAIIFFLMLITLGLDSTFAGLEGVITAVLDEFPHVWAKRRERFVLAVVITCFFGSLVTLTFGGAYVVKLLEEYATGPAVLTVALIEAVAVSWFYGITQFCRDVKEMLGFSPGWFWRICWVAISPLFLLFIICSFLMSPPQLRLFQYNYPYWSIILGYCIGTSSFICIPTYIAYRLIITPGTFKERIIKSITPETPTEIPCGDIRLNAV
T2 sequence (P23975 whole entry): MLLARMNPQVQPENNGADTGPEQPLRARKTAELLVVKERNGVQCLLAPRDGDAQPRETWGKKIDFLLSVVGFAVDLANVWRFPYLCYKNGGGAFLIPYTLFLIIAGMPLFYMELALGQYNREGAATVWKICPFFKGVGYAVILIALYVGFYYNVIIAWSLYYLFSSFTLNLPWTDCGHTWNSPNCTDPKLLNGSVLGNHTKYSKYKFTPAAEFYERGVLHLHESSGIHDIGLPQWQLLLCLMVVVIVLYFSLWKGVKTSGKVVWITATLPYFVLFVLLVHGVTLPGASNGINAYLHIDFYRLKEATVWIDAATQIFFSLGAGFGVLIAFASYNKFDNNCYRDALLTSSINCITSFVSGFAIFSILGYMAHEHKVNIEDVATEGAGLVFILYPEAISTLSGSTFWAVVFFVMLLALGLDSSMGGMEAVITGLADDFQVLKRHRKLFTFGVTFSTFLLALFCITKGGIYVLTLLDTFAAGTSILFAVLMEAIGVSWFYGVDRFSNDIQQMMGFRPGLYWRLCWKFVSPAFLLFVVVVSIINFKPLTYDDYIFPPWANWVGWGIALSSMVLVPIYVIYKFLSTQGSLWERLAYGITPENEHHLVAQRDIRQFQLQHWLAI
5-hydroxytryptamine receptor 2A (Homo sapiens), sequence (P28223 whole entry): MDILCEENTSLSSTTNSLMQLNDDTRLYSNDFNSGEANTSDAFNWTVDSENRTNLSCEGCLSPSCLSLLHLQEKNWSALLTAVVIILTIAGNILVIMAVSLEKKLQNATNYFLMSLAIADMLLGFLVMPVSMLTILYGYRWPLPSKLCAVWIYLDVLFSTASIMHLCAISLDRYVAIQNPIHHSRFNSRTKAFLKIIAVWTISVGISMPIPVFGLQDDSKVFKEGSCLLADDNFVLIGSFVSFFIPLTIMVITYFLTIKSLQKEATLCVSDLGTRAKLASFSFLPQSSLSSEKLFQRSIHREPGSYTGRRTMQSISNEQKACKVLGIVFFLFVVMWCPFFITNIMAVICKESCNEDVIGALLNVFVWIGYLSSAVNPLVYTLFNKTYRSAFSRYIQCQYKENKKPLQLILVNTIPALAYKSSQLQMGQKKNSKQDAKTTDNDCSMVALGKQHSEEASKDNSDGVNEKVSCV
CYP2C9, sequence (P11712 whole entry): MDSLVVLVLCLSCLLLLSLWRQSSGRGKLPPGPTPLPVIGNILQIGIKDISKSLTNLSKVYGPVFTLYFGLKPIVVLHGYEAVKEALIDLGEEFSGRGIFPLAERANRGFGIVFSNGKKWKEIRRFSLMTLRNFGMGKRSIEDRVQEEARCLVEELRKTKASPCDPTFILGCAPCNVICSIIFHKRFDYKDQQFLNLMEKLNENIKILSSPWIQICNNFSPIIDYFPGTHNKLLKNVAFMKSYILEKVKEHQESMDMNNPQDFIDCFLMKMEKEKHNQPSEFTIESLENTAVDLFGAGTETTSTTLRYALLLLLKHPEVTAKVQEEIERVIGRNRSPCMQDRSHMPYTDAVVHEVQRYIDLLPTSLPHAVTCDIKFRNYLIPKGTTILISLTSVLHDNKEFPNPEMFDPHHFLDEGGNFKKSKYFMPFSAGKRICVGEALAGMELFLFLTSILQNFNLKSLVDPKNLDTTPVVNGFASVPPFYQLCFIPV
CYP3A4, sequence (P08684 whole entry): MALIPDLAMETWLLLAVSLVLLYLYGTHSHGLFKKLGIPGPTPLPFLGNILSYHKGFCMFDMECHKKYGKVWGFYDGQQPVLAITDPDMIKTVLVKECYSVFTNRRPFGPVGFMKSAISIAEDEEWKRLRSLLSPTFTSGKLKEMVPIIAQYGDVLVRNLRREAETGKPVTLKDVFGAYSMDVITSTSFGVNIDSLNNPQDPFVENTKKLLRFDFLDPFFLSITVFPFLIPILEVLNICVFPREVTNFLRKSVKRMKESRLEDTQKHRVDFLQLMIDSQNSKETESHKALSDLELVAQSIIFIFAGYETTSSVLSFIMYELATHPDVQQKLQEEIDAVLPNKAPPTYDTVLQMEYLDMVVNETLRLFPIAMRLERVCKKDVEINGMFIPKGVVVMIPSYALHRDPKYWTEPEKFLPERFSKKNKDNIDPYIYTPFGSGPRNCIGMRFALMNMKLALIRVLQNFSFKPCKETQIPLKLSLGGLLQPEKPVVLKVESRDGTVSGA
CYP2D6, sequence (P10635 whole entry): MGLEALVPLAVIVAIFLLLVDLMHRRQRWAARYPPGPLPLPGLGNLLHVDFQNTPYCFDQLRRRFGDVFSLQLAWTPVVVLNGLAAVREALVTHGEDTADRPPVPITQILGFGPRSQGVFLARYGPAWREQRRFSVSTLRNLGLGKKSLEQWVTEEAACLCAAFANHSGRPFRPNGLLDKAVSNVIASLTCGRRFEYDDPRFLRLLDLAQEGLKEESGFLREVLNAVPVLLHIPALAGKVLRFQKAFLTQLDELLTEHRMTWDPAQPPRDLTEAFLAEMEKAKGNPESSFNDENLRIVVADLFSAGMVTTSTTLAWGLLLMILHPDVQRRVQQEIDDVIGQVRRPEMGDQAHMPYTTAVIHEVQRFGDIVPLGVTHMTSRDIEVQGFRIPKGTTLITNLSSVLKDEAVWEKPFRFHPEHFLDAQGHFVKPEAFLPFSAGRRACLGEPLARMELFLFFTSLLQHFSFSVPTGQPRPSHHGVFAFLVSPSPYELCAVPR

As for `CNC[C@@H](O)[C@H](c1ccccc1)n1ccc2ccccc21` [listing 1 of 2 here], the inhibition at 3 µM at CYP2D6, against CYP3A4 and at CYP2C9 was under 20% throughout. For the same compound, in data set [1], the half-inhibitory concentration (IC50) came to 358 nM. Also, the half-life at 1 µM is 9.7 min in data set [2], over 60 min in data set [3], 9.8 min in data set [5] and 15.9 min in [6]. Moreover, the Papp in data set [4] came to 4.6 ×10⁻⁶ cm/s. Moreover, the solubility in data set [7] is over 50 µg/mL.

`CNC[C@@H](O)[C@@H](c1ccccc1)n1ccc2ccccc21`: half-maximal inhibition in data set [1] (IC50) was put at 161 nM. Besides, the inhibition in data set [8] is 31%.

For the compound `CNC[C@H](O)[C@@H](c1ccccc1)n1ccc2ccccc21` [listing 1 of 2 here], the IC50 in [1] turned out to be 144 nM.

With `CNC[C@H](O)[C@H](c1ccccc1)n1ccc2ccccc21`, inhibition in [1] was half-maximal at 918 nM (IC50). Also, the inhibition in [8] was 0%.

On to `CNC[C@@H](O)[C@H](c1ccccc1)n1ccc2ccccc21` [listing 2 of 2 here], for which the outcome in data set [9], in data set [10], in [11] and in data set [12] was inactive. The inhibition in data set [8] is 19%.

Regarding `CNC[C@H](O)[C@@H](c1ccccc1)n1ccc2ccccc21` [listing 2 of 2 here], in data set [8], the inhibition turned out to be 18%.

Turning to `OC1(c2ccc(Cl)cc2)c2ccccc2C2=NCCN21` (stereo not given), the inhibition in [8] is 22.1%.

With `CCNC[C@H](O)[C@H](c1ccccc1)n1ccc2ccccc21` (racemic), the IC50 is 298 nM in data set [1] and 1200 nM in data set [13]. The Ratio IC50 with MDCK-Net6 was determined as 0.2.

For the compound `CNC[C@H](O)[C@H](c1ccccc1)n1ccc2cc(Cl)ccc21` (racemic), the half-inhibitory concentration (IC50) in data set [1] came out at 10 nM; in data set [13] it was 49 nM. Moreover, in the data set with MDCK-Net6, the Ratio IC50 is 0.2.

Turning to `CNC[C@H](O)[C@H](c1ccccc1)n1ccc2cc(F)ccc21` (racemic), the IC50 in data set [1] is 95 nM; in data set [13], 118 nM. Also, the Ratio IC50 with MDCK-Net6 amounted to 1.

As to `O[C@@H](CNCC1CCCCC1)[C@H](c1ccccc1)n1ccc2ccccc21` (racemic), in data set [1], the half-inhibitory concentration (IC50) is 2830 nM. This compound returned an inhibition in data set [14] of 41%.

For the compound `CNC[C@H](O)[C@H](c1ccccc1)n1ccc2cc(OC)ccc21` (racemic), the half-maximal inhibitory concentration (IC50) was found to be 31 nM in [1] and 230 nM in [13]. The Ratio IC50 with MDCK-Net6 was determined as 0.1. Further, the inhibition in [8] amounted to 2%.

`CCNC[C@H](O)[C@H](c1ccccc1)n1cc(C)c2ccccc21` (racemic): the IC50 in [1] stood at 2200 nM; in data set [13], 1100 nM. The Ratio IC50 in the data set with MDCK-Net6 is 2. For the same compound, in [8], the inhibition stood at 0%.

For the compound `Cc1cn([C@@H](c2ccccc2)[C@@H](O)CN)c2ccccc12` (racemic), the figures for the IC50 in data set [1] and in [13] were 299 nM and 321 nM, respectively. For the same compound, the Ratio IC50 with MDCK-Net6 was 1. Moreover, in data set [8], the inhibition stood at 6%.

In the case of `NC[C@H](O)[C@H](c1ccccc1)n1ccc2ccccc21` (racemic), the IC50 in data set [1] amounted to 50 nM. Also, the Ratio IC50 in the data set with MDCK-Net6 was determined as 0.1. The inhibition in data set [8] was found to be 7%.

In [1], `CNC[C@H](O)[C@H](c1ccccc1)n1cc(C)c2ccccc21` (racemic) registered an IC50 of 251 nM. Further, the inhibition in [8] stood at 0%.

`CC(C)NC[C@H](O)[C@H](c1ccccc1)n1ccc2ccccc21` (racemic) showed an inhibition in [14] of 13%.

For the compound `CCN(C)C[C@H](O)[C@H](c1ccccc1)n1ccc2ccccc21` (racemic), the inhibition in data set [14] is 38%.

Compound `CCNC[C@H](O)[C@H](c1ccccc1)n1ccc2cc(F)ccc21` (racemic) had an inhibition in [14] of 11%.

In turn, `CN(C)C[C@H](O)[C@H](c1ccccc1)n1ccc2ccccc21` (racemic) had an inhibition in data set [14] of 25%.

In turn, `CN1CCN(C[C@H](O)[C@H](c2ccccc2)n2ccc3ccccc32)CC1` (racemic) yielded an inhibition in data set [14] of 5%.

In turn, `CNC[C@H](O)[C@H](c1ccccc1)n1c(C)cc2ccccc21` (racemic) showed an inhibition in data set [14] of 45%.

Take `NC[C@H](O)[C@H](c1ccccc1)n1ccc2cc(F)ccc21` (racemic): in data set [14], the inhibition was 32%.

`O[C@@H](CN1CCNCC1)[C@H](c1ccccc1)n1ccc2ccccc21` (racemic) came in with an inhibition in data set [14] of 34%.

As to `O[C@@H](CN1CCOCC1)[C@H](c1ccccc1)n1ccc2ccccc21` (racemic), the inhibition in [14] was determined as 18%.

Compound `O[C@@H](CNCc1ccccc1)[C@H](c1ccccc1)n1ccc2ccccc21` (racemic) returned an inhibition in data set [14] of 26%.

`O[C@@H](CNCc1ccncc1)[C@H](c1ccccc1)n1ccc2ccccc21` (racemic) gave an inhibition in data set [14] of 24%.

Regarding `CNC[C@@H](O)[C@H](c1ccccc1)n1ccc2ccccc21` (stereo in doubt) [listing 1 of 2 here], in data set [1], the IC50 turned out to be 126 nM.

Turning to `CNC[C@H](O)[C@@H](c1ccccc1)n1ccc2ccccc21` (stereo in doubt) [listing 1 of 2 here], the IC50 in data set [1] turned out to be 74 nM.

As for `CNC[C@@H](O)[C@H](c1ccccc1)n1ccc2ccccc21` (stereo in doubt) [listing 2 of 2 here], in data set [8], the inhibition worked out at 7%.

As for `CNC[C@H](O)[C@@H](c1ccccc1)n1ccc2ccccc21` (stereo in doubt) [listing 2 of 2 here], in [8], the inhibition was 4%.

The record behind these values is ChEMBL document CHEMBL1155305, “Discovery of a new series of monoamine reuptake inhibitors, the 1-amino-3-(1H-indol-1-yl)-3-phenylpropan-2-ols” (Bioorg Med Chem Lett, 2009).
